Assay in all cases: Kinase profiling screen (radioactive filter-binding assay)
Type in all cases: biochemical

The target of assay [1] is T1, ASK1 (Homo sapiens, UniProt Q99683).
T1 sequence (Q99683 1-1374): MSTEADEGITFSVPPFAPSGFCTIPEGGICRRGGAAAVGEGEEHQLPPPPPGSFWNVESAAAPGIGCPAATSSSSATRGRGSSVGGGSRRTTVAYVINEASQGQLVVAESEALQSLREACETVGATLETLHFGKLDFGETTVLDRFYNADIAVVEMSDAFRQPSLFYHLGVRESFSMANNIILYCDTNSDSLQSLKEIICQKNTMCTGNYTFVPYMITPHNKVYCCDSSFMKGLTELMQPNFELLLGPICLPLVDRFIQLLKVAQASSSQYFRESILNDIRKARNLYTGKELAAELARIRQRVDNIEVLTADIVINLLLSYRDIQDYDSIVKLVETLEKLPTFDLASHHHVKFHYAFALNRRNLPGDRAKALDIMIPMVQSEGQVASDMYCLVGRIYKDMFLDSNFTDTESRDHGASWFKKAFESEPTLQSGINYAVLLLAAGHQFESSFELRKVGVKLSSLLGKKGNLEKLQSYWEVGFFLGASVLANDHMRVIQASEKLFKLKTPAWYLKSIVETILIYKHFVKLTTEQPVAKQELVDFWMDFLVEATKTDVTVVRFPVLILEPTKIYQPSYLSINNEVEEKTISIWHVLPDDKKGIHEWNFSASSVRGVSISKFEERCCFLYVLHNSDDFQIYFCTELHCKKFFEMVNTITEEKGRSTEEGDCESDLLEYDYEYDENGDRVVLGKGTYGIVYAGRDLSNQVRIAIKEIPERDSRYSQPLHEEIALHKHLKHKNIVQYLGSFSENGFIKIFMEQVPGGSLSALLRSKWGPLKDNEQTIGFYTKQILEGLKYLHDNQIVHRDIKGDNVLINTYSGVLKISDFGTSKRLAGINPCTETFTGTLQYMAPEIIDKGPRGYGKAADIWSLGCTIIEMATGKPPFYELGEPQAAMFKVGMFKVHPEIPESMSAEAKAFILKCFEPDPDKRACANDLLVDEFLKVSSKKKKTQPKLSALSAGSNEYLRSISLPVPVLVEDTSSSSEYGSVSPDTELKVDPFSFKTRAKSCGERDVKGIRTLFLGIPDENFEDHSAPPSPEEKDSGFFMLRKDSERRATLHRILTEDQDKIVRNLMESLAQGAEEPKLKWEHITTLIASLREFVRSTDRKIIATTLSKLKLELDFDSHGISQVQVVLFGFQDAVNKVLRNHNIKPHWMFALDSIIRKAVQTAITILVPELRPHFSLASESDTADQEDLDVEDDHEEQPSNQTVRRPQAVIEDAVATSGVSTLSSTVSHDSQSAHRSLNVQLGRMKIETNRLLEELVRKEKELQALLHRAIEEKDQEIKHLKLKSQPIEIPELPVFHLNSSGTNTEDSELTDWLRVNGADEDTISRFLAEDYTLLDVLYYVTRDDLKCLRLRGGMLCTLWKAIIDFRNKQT
The note with it: 100 μM compound, 50 μM ATP; read-out: Kinase activity, % of activity in the absence of inhibitor. In short, it runs like this: (§1)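 Single-point in vitro screen: 100 μM final of CoA, dpCoA and ADP, run in duplicate against recombinant kinase with a model substrate and optimal ATP.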

The target of assay [2] is T2, BRSK1 (Homo sapiens, UniProt Q8TDC3).
T2 sequence (Q8TDC3 1-778): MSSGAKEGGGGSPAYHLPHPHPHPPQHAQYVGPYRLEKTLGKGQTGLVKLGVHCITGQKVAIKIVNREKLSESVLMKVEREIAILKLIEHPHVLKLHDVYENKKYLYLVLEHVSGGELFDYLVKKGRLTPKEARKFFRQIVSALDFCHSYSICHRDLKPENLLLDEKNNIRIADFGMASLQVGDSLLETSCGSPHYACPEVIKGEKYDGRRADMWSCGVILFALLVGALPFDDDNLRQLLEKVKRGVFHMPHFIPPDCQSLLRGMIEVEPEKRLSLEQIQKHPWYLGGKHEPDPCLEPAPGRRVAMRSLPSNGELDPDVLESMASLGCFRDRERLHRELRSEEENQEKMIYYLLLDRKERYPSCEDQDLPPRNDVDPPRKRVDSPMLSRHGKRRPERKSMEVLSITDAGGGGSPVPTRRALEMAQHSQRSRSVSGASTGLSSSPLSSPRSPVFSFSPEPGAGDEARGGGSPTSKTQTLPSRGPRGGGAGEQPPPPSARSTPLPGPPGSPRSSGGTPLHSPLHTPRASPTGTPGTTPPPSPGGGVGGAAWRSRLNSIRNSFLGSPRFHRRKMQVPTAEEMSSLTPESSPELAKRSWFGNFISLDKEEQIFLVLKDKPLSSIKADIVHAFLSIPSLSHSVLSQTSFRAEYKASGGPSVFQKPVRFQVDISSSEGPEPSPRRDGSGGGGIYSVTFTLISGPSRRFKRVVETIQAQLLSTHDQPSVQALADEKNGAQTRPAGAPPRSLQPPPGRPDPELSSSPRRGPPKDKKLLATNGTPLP
The note with it: 100 μM compound, 20 μM ATP; read-out: Kinase activity, % of activity in the absence of inhibitor. In short, it runs like this:
as §1

For assay [3], the target named is BTK (Homo sapiens, UniProt Q06187). The note with it: for activity at 100 µM: 100 μM compound, 50 μM ATP, read-out: Kinase activity, % of activity in the absence of inhibitor. In short, it runs like this:
as §1

In assay [4] the target is CAMK1 (Homo sapiens, UniProt Q14012). The settings on record: 100 μM compound, 50 μM ATP; read-out: Kinase activity, % of activity in the absence of inhibitor. In short, it runs like this: as §1
The target in assay [5] is HIPK3 (Homo sapiens, UniProt Q9H422). The note with it: 100 μM compound, 20 μM ATP; read-out: Kinase activity, % of activity in the absence of inhibitor. In short, it runs like this:
as §1

The target in assay [6] is MAPKAP-K2 (Homo sapiens, UniProt P49137). The settings on record: 100 μM compound, 20 μM ATP; read-out: Kinase activity, % of activity in the absence of inhibitor. In short, it runs like this:
as §1

In assay [7] the target is STK33 (Homo sapiens, UniProt Q9BYT3). The settings on record: 100 μM compound, 50 μM ATP; read-out: Kinase activity, % of activity in the absence of inhibitor. In short, it runs like this: as §1
STK33, sequence (Q9BYT3 whole entry): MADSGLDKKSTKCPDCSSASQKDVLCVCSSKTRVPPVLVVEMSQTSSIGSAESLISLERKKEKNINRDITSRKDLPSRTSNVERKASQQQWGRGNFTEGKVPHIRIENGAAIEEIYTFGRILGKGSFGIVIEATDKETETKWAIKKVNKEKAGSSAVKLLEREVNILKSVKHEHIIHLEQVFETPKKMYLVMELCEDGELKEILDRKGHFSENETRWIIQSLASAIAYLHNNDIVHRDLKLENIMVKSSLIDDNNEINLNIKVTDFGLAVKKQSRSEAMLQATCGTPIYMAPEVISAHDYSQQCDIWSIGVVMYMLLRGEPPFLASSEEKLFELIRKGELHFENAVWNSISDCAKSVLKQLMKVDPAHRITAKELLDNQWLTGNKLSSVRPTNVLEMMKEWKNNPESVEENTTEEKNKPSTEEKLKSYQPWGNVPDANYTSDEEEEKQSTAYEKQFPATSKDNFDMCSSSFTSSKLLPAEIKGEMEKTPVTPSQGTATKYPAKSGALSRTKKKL
Assay [8] has as its target SmMLCK (Homo sapiens, UniProt Q15746). The note with it: 100 μM compound, 20 μM ATP; read-out: Kinase activity, % of activity in the absence of inhibitor. In short, it runs like this: as §1

From article PMC6812009, “Covalent Aurora A regulation by the metabolic integrator coenzyme A” (Redox Biology, 2019) come the findings set out here.

SmMLCK, sequence (Q15746 923-1914): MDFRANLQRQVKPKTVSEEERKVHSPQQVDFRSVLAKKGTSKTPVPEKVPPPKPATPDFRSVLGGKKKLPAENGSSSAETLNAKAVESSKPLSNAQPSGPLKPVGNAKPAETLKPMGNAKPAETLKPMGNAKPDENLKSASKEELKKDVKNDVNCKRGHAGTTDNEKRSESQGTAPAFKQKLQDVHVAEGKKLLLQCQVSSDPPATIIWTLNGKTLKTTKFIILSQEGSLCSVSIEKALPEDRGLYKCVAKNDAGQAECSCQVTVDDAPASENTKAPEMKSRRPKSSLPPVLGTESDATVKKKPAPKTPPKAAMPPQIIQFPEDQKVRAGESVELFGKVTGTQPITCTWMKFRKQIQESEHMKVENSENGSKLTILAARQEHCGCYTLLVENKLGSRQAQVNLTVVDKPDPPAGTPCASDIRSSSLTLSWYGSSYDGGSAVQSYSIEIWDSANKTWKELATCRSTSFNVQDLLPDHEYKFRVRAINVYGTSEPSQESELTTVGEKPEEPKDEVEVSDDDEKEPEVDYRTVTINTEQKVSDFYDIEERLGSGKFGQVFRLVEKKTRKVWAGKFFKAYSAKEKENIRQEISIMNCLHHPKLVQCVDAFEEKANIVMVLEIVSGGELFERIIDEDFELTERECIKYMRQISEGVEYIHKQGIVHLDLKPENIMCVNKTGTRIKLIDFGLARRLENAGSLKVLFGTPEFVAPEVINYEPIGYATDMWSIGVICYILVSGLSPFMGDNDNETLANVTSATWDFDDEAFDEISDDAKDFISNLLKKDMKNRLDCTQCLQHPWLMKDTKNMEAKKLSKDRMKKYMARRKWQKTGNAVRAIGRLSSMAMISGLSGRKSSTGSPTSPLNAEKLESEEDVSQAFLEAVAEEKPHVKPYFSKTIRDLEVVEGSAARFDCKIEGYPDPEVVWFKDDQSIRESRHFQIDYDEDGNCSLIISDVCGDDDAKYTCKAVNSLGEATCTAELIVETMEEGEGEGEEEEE
BTK, sequence (Q06187 whole entry): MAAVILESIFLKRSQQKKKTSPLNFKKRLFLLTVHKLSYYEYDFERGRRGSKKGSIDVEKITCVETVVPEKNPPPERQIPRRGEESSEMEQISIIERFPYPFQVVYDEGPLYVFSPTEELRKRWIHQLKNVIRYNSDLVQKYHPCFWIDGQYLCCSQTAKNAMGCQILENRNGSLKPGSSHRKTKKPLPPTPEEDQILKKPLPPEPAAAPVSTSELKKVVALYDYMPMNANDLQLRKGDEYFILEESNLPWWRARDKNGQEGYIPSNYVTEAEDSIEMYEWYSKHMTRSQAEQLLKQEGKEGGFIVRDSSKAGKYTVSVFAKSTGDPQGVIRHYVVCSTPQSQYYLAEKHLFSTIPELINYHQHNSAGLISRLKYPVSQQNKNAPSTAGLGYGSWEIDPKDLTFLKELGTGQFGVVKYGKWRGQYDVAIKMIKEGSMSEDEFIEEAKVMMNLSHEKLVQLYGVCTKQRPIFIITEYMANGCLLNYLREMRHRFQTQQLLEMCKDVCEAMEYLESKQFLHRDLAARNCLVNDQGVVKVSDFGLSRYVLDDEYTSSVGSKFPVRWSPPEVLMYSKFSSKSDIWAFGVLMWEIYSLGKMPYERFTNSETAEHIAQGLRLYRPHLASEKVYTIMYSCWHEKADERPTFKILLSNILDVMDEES
HIPK3, sequence (Q9H422 whole entry): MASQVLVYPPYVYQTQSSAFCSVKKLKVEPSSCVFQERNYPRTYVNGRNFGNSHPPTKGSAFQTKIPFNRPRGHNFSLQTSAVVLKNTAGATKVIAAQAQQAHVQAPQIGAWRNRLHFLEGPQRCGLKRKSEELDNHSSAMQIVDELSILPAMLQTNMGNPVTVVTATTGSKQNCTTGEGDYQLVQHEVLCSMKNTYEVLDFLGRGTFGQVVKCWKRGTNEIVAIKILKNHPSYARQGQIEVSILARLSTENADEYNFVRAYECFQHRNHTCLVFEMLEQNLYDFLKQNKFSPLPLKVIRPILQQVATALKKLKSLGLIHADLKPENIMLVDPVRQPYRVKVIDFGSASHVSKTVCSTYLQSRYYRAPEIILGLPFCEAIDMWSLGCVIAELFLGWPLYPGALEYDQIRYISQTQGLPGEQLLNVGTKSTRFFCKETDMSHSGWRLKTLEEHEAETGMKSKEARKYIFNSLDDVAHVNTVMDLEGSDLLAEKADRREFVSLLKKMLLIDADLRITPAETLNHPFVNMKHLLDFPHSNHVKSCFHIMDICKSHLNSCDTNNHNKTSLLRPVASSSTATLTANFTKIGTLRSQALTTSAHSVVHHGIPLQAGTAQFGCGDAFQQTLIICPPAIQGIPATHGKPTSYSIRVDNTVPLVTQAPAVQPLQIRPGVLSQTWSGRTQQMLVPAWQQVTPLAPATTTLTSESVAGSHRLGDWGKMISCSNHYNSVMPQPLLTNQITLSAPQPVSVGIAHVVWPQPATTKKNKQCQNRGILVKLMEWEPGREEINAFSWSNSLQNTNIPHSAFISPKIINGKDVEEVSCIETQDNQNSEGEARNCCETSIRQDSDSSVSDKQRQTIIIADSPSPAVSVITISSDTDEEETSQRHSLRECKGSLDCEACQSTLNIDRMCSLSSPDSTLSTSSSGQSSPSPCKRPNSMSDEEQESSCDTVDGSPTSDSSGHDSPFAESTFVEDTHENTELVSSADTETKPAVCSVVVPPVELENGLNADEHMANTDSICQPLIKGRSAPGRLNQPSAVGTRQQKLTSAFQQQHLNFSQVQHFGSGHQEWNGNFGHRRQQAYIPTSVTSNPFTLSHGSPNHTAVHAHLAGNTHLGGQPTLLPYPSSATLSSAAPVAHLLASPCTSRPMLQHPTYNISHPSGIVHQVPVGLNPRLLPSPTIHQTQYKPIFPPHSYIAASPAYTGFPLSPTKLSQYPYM
MAPKAP-K2, sequence (P49137 whole entry): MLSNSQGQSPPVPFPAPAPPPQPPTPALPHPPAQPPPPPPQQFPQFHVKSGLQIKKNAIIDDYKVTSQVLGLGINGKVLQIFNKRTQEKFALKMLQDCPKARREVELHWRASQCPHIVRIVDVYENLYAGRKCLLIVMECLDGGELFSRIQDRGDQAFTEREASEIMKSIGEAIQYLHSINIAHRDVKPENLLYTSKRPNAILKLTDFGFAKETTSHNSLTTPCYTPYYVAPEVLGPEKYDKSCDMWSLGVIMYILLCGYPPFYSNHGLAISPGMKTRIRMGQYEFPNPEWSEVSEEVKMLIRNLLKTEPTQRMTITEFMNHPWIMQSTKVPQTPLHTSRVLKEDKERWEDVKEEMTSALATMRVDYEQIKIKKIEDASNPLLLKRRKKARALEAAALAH

As to `CC(C)(COP(=O)(O)OP(=O)(O)OCC1OC(n2cnc3c(N)ncnc32)C(O)C1O)C(O)C(=O)NCCC(=O)NCCS` (stereo not shown) [dpCoA, dephospho-CoA], the activity at 100 µM came out at 88.6% in assay [1]; 96.4% in assay [2]; 30.6% in assay [3]; 126% in assay [4]; 91.5% in assay [5]; 81.7% in assay [6]. Also, the activity at 100 µM turned out to be 83.3% in assay [7] and 91.3% in assay [8].
For `CC(C)(COP(=O)(O)OP(=O)(O)OC[C@H]1O[C@@H](n2cnc3c(N)ncnc32)[C@H](O)[C@@H]1OP(=O)(O)O)[C@@H](O)C(=O)NCCC(=O)NCCS` [CoA, Coenzyme A], the activity at 100 µM in assay [1] stood at 129%; in assay [2] it was 110%; in assay [3], 67.9%; in assay [4] it was 124%; in assay [5], 123%; in assay [6], 93.1%. In addition, the values for the activity at 100 µM in assay [7] and in assay [8] were 71.8% and 92.1%, respectively. In assay [3] (kinase profiling, 100 μM), the “BTK inhibition (in words)” value was “modestly inhibited”.
As to `Nc1ncnc2c1ncn2C1OC(COP(=O)(O)OP(=O)(O)O)C(O)C1O` (stereo not shown) [ADP], the activity at 100 µM in assay [1] was 70.2%; in assay [2] it was 42.8%; in assay [3], 18.2%; in assay [4] it was 80.1%; in assay [5], 34.2%; in assay [6], 53%. Besides, the activity at 100 µM in assay [7] was 54.6%; in assay [8] it was 73%.
